Data: PubChem BioAssay AID192 (DTP/NCI, 2004)
Where “and” joins values, the source holds several entries; their conditions need not be identical. Equal values may be shown once. Inconclusive results and toxic doses are left out.

Tested on: BDF1 mice, B16 melanoma ip, median survival T/C
Assay: NCI In Vivo Anticancer Drug Screen. Data for tumor model B16 Melanoma (intraperitoneal) in B6D2F1 (BDF1) mice
Details: endpoint: median survival time, higher = longer survival
Outline: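 Transplantable tumor model; survival or tumor size measured; reported as T/C, treated over vehicle control.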

[1] = dose: 100.0 mg/kg/injection, schedule: Q04DX003 (ip), vehicle: Klucel (hydroxypropylcellulose) (HPC)
[2] = dose: 200.0 mg/kg/injection, schedule: Q04DX003 (ip), vehicle: Klucel (hydroxypropylcellulose) (HPC)
[3] = dose: 400.0 mg/kg/injection, schedule: Q04DX003 (ip), vehicle: Klucel (hydroxypropylcellulose) (HPC)
[4] = dose: 25.0 mg/kg/injection, schedule: Q01DX009 (ip), vehicle: saline with Tween-80
[5] = dose: 50.0 mg/kg/injection, schedule: Q01DX009 (ip), vehicle: saline with Tween-80
[6] = dose: 100.0 mg/kg/injection, schedule: Q01DX009 (ip), vehicle: saline with Tween-80
[7] = dose: 200.0 mg/kg/injection, schedule: Q01DX009 (ip), vehicle: saline with Tween-80
[8] = dose: 400.0 mg/kg/injection, schedule: Q01DX009 (ip), vehicle: saline with Tween-80
[9] = dose: 100.0 mg/kg/injection, schedule: Q01DX009 (ip), vehicle: Klucel (hydroxypropylcellulose) (HPC)
[10] = dose: 200.0 mg/kg/injection, schedule: Q01DX009 (ip), vehicle: Klucel (hydroxypropylcellulose) (HPC)
[11] = dose: 400.0 mg/kg/injection, schedule: Q01DX009 (ip), vehicle: Klucel (hydroxypropylcellulose) (HPC)

Which T/C (dose: 0.06 mg/kg/injection, schedule: Q01DX009 (ip), vehicle: Klucel (hydroxypropylcellulose) (HPC)) does the source give for `CSCS(=O)C[C@H](CO)NC(=O)/C=C/c1c(C)[nH]c(=O)[nH]c1=O` (stereo partly drawn) here?
Its T/C is 95 % of control.

And the T/C (dose: 0.08 mg/kg/injection, schedule: Q01DX009 (ip), vehicle: water)?
Its T/C is 99 % of control.

What about the T/C (dose: 0.15 mg/kg/injection, schedule: Q01DX009 (ip), vehicle: water) of the same compound?
The T/C was 105 % of control.

What about the T/C (dose: 0.3 mg/kg/injection, schedule: Q01DX009 (ip), vehicle: water) of the same compound?
The T/C was 108 % of control.

What about the T/C (dose: 0.6 mg/kg/injection, schedule: Q01DX009 (ip), vehicle: water) of the same compound?
The T/C was 91 % of control.

And the T/C (dose: 0.98 mg/kg/injection, schedule: Q04DX003 (ip), vehicle: saline)?
The T/C was 94 % of control.

And the T/C (dose: 1.4 mg/kg/injection, schedule: Q04DX003 (ip), vehicle: saline)?
Its T/C is 113 % of control.

And the T/C (dose: 2.0 mg/kg/injection, schedule: Q04DX003 (ip), vehicle: saline)?
Its T/C is 101 % of control.

What does the source list for `CCCCCCNC(=O)Nc1cccc(Cl)c1C`?
T/C [1]: 92 % of control; T/C [2]: 90 % of control; T/C [3]: 87 % of control

Which results are given for `CC(C)CNC(=O)Nc1ccccc1C(F)(F)F`?
T/C [4]: 97 % of control; T/C [5]: 96 % of control; T/C [6]: 86 % of control and 93 % of control; T/C [7]: 105 % of control; T/C [8]: 97 % of control

For `Nc1nccnc1N`, which T/C [5] is on record?
The T/C was 102 % of control.

And the T/C [6]?
The T/C was 88 % of control.

What does the source list for `CC(C)COC(=O)c1ccc(NC(=O)Nc2ccccc2Cl)cc1`?
T/C (dose: 12.5 mg/kg/injection, schedule: Q01DX009 (ip), vehicle: saline with Tween-80): 100 % of control; T/C [4]: 93 % of control; T/C [5]: 97 % of control

What does the source list for `CS(=O)(=O)OCCN(CCOS(C)(=O)=O)c1ccc(N=O)cc1`?
T/C (dose: 0.1 mg/kg/injection, schedule: Q01DX009 (ip), vehicle: saline): 150 % of control; T/C (dose: 0.2 mg/kg/injection, schedule: Q01DX009 (ip), vehicle: saline): 184 % of control and 204 % of control; T/C (dose: 0.3 mg/kg/injection, schedule: Q01DX009 (ip), vehicle: saline): 175 % of control

For `CCCCCCCC/C=C\CCCCCCCCN1CC(C(=O)[O][Pb]([CH2]C)([CH2]C)[CH2]C)CC1=O` (stereo not drawn), which T/C (dose: 0.75 mg/kg/injection, schedule: Q01DX009 (ip), vehicle: saline with Tween-80) is on record?
The T/C was 107 % of control.

And the T/C (dose: 1.5 mg/kg/injection, schedule: Q01DX009 (ip), vehicle: saline with Tween-80)?
Its T/C is 106 % of control.

What about the T/C (dose: 3.0 mg/kg/injection, schedule: Q01DX009 (ip), vehicle: saline with Tween-80) of the same compound?
The T/C was 102 % of control.

And the T/C (dose: 6.0 mg/kg/injection, schedule: Q01DX009 (ip), vehicle: saline with Tween-80)?
The T/C was 107 % of control.

`C(=P(c1ccccc1)(c1ccccc1)c1ccccc1)[P+](c1ccccc1)(c1ccccc1)c1ccccc1` was tested. Which T/C (dose: 3.12 mg/kg/injection, schedule: Q01DX009 (ip), vehicle: Klucel (hydroxypropylcellulose) (HPC)) did it give?
Its T/C is 111 % of control.

What about the T/C (dose: 6.25 mg/kg/injection, schedule: Q01DX009 (ip), vehicle: suspension in saline) of the same compound?
The T/C was 157 % of control.

For `OCCN(CCO)CN(CO)c1nc(N(CO)CN(CCO)CCO)nc(N(CO)CN(CCO)CCO)n1`, which T/C (dose: 100.0 mg/kg/injection, schedule: Q04DX003 (ip), vehicle: saline) is on record?
Its T/C is 120 % of control.

What about the T/C (dose: 200.0 mg/kg/injection, schedule: Q04DX003 (ip), vehicle: saline) of the same compound?
The T/C was 123 % of control.

What about the T/C (dose: 400.0 mg/kg/injection, schedule: Q04DX003 (ip), vehicle: saline) of the same compound?
Its T/C is 112 % of control.

With `CCC1OC(=O)CC(O)C(C)C(OC2OC(C)C(O)C(N(C)C)C2O)C(CC=O)CC(C)C(=O)/C=C/C2(C)OC2C1C` (stereo not drawn) as the compound, how does the T/C (dose: 12.5 mg/kg/injection, schedule: Q01DX009 (ip), vehicle: Klucel (hydroxypropylcellulose) (HPC)) read?
The T/C was 96 % of control.

And the T/C (dose: 25.0 mg/kg/injection, schedule: Q01DX009 (ip), vehicle: Klucel (hydroxypropylcellulose) (HPC))?
Its T/C is 97 % of control.

And the T/C (dose: 50.0 mg/kg/injection, schedule: Q01DX009 (ip), vehicle: Klucel (hydroxypropylcellulose) (HPC))?
The T/C was 98 % of control.

What about the T/C [9] of the same compound?
Its T/C is 88 % of control.

For `Cc1ccc(Cl)cc1NS(=O)(=O)c1ccccc1`, which T/C [6] is on record?
Its T/C is 90 % of control.

And the T/C [7]?
Its T/C is 95 % of control.

And the T/C [8]?
The T/C was 90 % of control.

`CCCCN(C)/N=N/c1nc[nH]c1C(N)=O` was tested. Which T/C (dose: 10.0 mg/kg/injection, schedule: Q01DX009 (ip), vehicle: carboxymethylcellulose (CMC)) did it give?
Its T/C is 111 % of control.

And the T/C (dose: 20.0 mg/kg/injection, schedule: Q01DX009 (ip), vehicle: carboxymethylcellulose (CMC))?
Its T/C is 120 % of control.

What about the T/C [4] of the same compound?
Its T/C is 109 % of control.

And the T/C [5]?
The T/C was 112 % of control.

How did the T/C (dose: 12.5 mg/kg/injection, schedule: Q01DX009 (ip), vehicle: saline) turn out when `NNC(=O)c1ccccc1` was run?
Its T/C is 105 % of control.

And the T/C (dose: 25.0 mg/kg/injection, schedule: Q01DX009 (ip), vehicle: saline)?
The T/C was 97 % of control.

And the T/C (dose: 50.0 mg/kg/injection, schedule: Q01DX009 (ip), vehicle: saline)?
Its T/C is 88 % of control.

Which T/C [5] does the source give for `CC1(C)C=C(C(Br)c2ccc(Cl)cc2)C(=O)c2ccccc21` (stereo not drawn) here?
Its T/C is 103 % of control.

What about the T/C [6] of the same compound?
Its T/C is 106 % of control.

And the T/C [7]?
Its T/C is 99 % of control.

What about the T/C [8] of the same compound?
The T/C was 97 % of control.

What does the source list for `Cc1ccc(NC(=O)Nc2cccc(Cl)c2)cc1C`?
T/C [9]: 86 % of control; T/C [1]: 92 % of control; T/C [10]: 86 % of control; T/C [2]: 92 % of control; T/C [11]: 86 % of control; T/C [3]: 92 % of control

Which T/C (dose: 100.0 mg/kg/injection, schedule: Q04DX003 (ip), vehicle: saline with Tween-80) does the source give for `CC12C=CC(C=C1)C(O)C2` (stereo not drawn) here?
The T/C was 112 % of control.

What about the T/C (dose: 200.0 mg/kg/injection, schedule: Q04DX003 (ip), vehicle: saline with Tween-80) of the same compound?
Its T/C is 93 % of control.

And the T/C (dose: 400.0 mg/kg/injection, schedule: Q04DX003 (ip), vehicle: saline with Tween-80)?
Its T/C is 101 % of control.

`CC(C)CCC(C)C1CCC2C3CC([N+](=O)[O-])=C4CC(OC(=O)c5ccccc5)CCC4(C)C3CCC12C` (stereo not drawn) was tested. Which T/C [9] did it give?
Its T/C is 105 % of control.

And the T/C [10]?
The T/C was 110 % of control.

What about the T/C [11] of the same compound?
The T/C was 105 % of control.
